Reference: PubChem BioAssay AID1963965 (Molecular Pharmacology Branch, DTP, NCI, 2024)
Values belong to the compound of their own block, whether it stands above or below them.

System: 996289-038-R-J1-PDC spheroid viability
Assay: Anticancer human tumor 996289-038-R-J1-PDC patient-derived colon adenocarcinoma cell line growth inhibition [PI3K]
Conditions: spheroids with HUVEC and MSC; for IC50: curve of first compound; for viability, T/C: stronger effect = lower value
Summary of the method: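 We assembled tumor spheroids that included a stromal compartment of HUVEC and MSCs, then exposed them to targeted agents alone and together with PI3K pathway inhibitors. Concentration series descended by half-log from clinically achievable Cmax levels. Viability served as the endpoint.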

[1] = second compound 0.0316 µM, first compound 0.000316 µM
[2] = second compound 0.0316 µM, first compound 0.001 µM
[3] = second compound 0.0316 µM, first compound 0.00316 µM
[4] = second compound 0.0316 µM, first compound 0.01 µM
[5] = second compound 0.0316 µM, first compound 0.0316 µM
[6] = second compound 0.0316 µM, first compound 0.1 µM
[7] = second compound 0.1 µM, first compound 0.000316 µM
[8] = second compound 0.1 µM, first compound 0.001 µM
[9] = second compound 0.1 µM, first compound 0.00316 µM
[10] = second compound 0.1 µM, first compound 0.01 µM
[11] = second compound 0.1 µM, first compound 0.0316 µM
[12] = second compound 0.1 µM, first compound 0.1 µM
[13] = second compound 0.316 µM, first compound 0.000316 µM
[14] = second compound 0.316 µM, first compound 0.001 µM
[15] = second compound 0.316 µM, first compound 0.00316 µM
[16] = second compound 0.316 µM, first compound 0.01 µM
[17] = second compound 0.316 µM, first compound 0.0316 µM
[18] = second compound 0.316 µM, first compound 0.1 µM
[19] = second compound 1 µM, first compound 0.000316 µM
[20] = second compound 1 µM, first compound 0.001 µM
[21] = second compound 1 µM, first compound 0.00316 µM
[22] = second compound 1 µM, first compound 0.01 µM
[23] = second compound 1 µM, first compound 0.0316 µM
[24] = second compound 1 µM, first compound 0.1 µM
[25] = second compound 3.16 µM, first compound 0.0316 µM
[26] = second compound 3.16 µM, first compound 0.1 µM
[27] = second compound 10 µM, first compound 0.0316 µM
[28] = second compound 10 µM, first compound 0.1 µM
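Further: spheroids exposed to compounds for seven days before viability read.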
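Wherever viability, T/C is given: luminescence used as a proxy for viable cell amount; percent viability relative to DMSO vehicle control as 100%.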

- IC50 (second compound 0.00316 µM): 51.2 nM
- IC50 (second compound 0.01 µM): 46.1 nM
- IC50 (second compound 0.0316 µM): 31.4 nM
- IC50 (second compound 0.1 µM): 23.4 nM
- IC50 (second compound 0.316 µM): 8.43 nM
- IC50 (second compound 1 µM): 5.5 nM
SMILES: CC(C)n1nc(-c2ccc3oc(N)nc3c2)c2c(N)ncnc21 + CC(Nc1ccc2c(c1)OCCn1cc(N3C(=O)OCC3C(F)F)nc1-2)C(N)=O
- viability, T/C (second compound 0.00316 µM, first compound 0.000316 µM): 95.9%
- viability, T/C (second compound 0.00316 µM, first compound 0.001 µM): 82.8%
- viability, T/C (second compound 0.00316 µM, first compound 0.00316 µM): 90.5%
- viability, T/C (second compound 0.00316 µM, first compound 0.01 µM): 81.1%
- viability, T/C (second compound 0.00316 µM, first compound 0.0316 µM): 64.5%
- viability, T/C (second compound 0.00316 µM, first compound 0.1 µM): 29.7%
- viability, T/C (second compound 0.01 µM, first compound 0.000316 µM): 94.8%
- viability, T/C (second compound 0.01 µM, first compound 0.001 µM): 93.2%
- viability, T/C (second compound 0.01 µM, first compound 0.00316 µM): 84.6%
- viability, T/C (second compound 0.01 µM, first compound 0.01 µM): 75.9%
- viability, T/C (second compound 0.01 µM, first compound 0.0316 µM): 62.4%
- viability, T/C (second compound 0.01 µM, first compound 0.1 µM): 28.5%
- viability, T/C [1]: 100%
- viability, T/C [2]: 95.6%
- viability, T/C [3]: 79.1%
- viability, T/C [4]: 63.2%
- viability, T/C [5]: 54.7%
- viability, T/C [6]: 29.1%
- viability, T/C [7]: 85%
- viability, T/C [8]: 75.3%
- viability, T/C [9]: 67.8%
- viability, T/C [10]: 62%
- viability, T/C [11]: 48.5%
- viability, T/C [12]: 23.4%
- viability, T/C [13]: 64%
- viability, T/C [14]: 67.8%
- viability, T/C [15]: 57.2%
- viability, T/C [16]: 43.9%
- viability, T/C [17]: 39.8%
- viability, T/C [18]: 17.1%
- viability, T/C [19]: 52.3%
- viability, T/C [20]: 60.9%
- viability, T/C [21]: 57.2%
- viability, T/C [22]: 41.6%
- viability, T/C [23]: 33.7%
- viability, T/C [24]: 16%

- IC50 (second compound 0.0316 µM): 54.8 nM
- IC50 (second compound 0.1 µM): 27.3 nM
- IC50 (second compound 0.316 µM): 41.5 nM
- IC50 (second compound 1 µM): 26 nM
- IC50 (second compound 3.16 µM): 2.54 nM
- IC50 (second compound 10 µM): < 0.316 nM
SMILES: CC(C)n1nc(-c2ccc3oc(N)nc3c2)c2c(N)ncnc21 + Cc1nc(NC(=O)N2CCCC2C(N)=O)sc1-c1ccnc(C(C)(C)C(F)(F)F)c1
- viability, T/C [1]: 97.1%
- viability, T/C [2]: 83.5%
- viability, T/C [3]: 89.2%
- viability, T/C [4]: 79%
- viability, T/C [5]: 66.5%
- viability, T/C [6]: 33.1%
- viability, T/C [7]: 100%
- viability, T/C [8]: 83.2%
- viability, T/C [9]: 78.4%
- viability, T/C [10]: 61.7%
- viability, T/C [11]: 54.5%
- viability, T/C [12]: 25.4%
- viability, T/C [13]: 77.7%
- viability, T/C [14]: 86.4%
- viability, T/C [15]: 93%
- viability, T/C [16]: 58.9%
- viability, T/C [17]: 63.3%
- viability, T/C [18]: 24.1%
- viability, T/C [19]: 72.5%
- viability, T/C [20]: 79.9%
- viability, T/C [21]: 66.5%
- viability, T/C [22]: 59.5%
- viability, T/C [23]: 49.8%
- viability, T/C [24]: 22.3%
- viability, T/C (second compound 3.16 µM, first compound 0.000316 µM): 63.9%
- viability, T/C (second compound 3.16 µM, first compound 0.001 µM): 53%
- viability, T/C (second compound 3.16 µM, first compound 0.00316 µM): 48.5%
- viability, T/C (second compound 3.16 µM, first compound 0.01 µM): 40.6%
- viability, T/C [25]: 32.3%
- viability, T/C [26]: 17.2%
- viability, T/C (second compound 10 µM, first compound 0.000316 µM): 43.9%
- viability, T/C (second compound 10 µM, first compound 0.001 µM): 40.8%
- viability, T/C (second compound 10 µM, first compound 0.00316 µM): 40.4%
- viability, T/C (second compound 10 µM, first compound 0.01 µM): 35.5%
- viability, T/C [27]: 25.2%
- viability, T/C [28]: 14.2%

- IC50 (second compound 0.0316 µM): 5900 nM
- IC50 (second compound 0.1 µM): 5510 nM
- IC50 (second compound 0.316 µM): 5540 nM
- IC50 (second compound 1 µM): 3450 nM
- IC50 (second compound 3.16 µM): 1520 nM
- IC50 (second compound 10 µM): 31.6 nM
SMILES: CCCS(=O)(=O)Nc1ccc(F)c(C(=O)c2c[nH]c3ncc(-c4ccc(Cl)cc4)cc23)c1F + Cc1nc(NC(=O)N2CCCC2C(N)=O)sc1-c1ccnc(C(C)(C)C(F)(F)F)c1
- viability, T/C [5]: 90.2%
- viability, T/C [6]: 86.1%
- viability, T/C (second compound 0.0316 µM, first compound 0.316 µM): 108%
- viability, T/C (second compound 0.0316 µM, first compound 1 µM): 96.1%
- viability, T/C (second compound 0.0316 µM, first compound 3.16 µM): 82.6%
- viability, T/C (second compound 0.0316 µM, first compound 10 µM): 22%
- viability, T/C [11]: 95.9%
- viability, T/C [12]: 87.7%
- viability, T/C (second compound 0.1 µM, first compound 0.316 µM): 91.6%
- viability, T/C (second compound 0.1 µM, first compound 1 µM): 88.3%
- viability, T/C (second compound 0.1 µM, first compound 3.16 µM): 79.5%
- viability, T/C (second compound 0.1 µM, first compound 10 µM): 18.5%
- viability, T/C [17]: 84.2%
- viability, T/C [18]: 84.8%
- viability, T/C (second compound 0.316 µM, first compound 0.316 µM): 80.2%
- viability, T/C (second compound 0.316 µM, first compound 1 µM): 81.3%
- viability, T/C (second compound 0.316 µM, first compound 3.16 µM): 70.5%
- viability, T/C (second compound 0.316 µM, first compound 10 µM): 28.3%
- viability, T/C [23]: 70.4%
- viability, T/C [24]: 79.6%
- viability, T/C (second compound 1 µM, first compound 0.316 µM): 70.5%
- viability, T/C (second compound 1 µM, first compound 1 µM): 66.7%
- viability, T/C (second compound 1 µM, first compound 3.16 µM): 53.1%
- viability, T/C (second compound 1 µM, first compound 10 µM): 17%
- viability, T/C [25]: 61.1%
- viability, T/C [26]: 63.5%
- viability, T/C (second compound 3.16 µM, first compound 0.316 µM): 57.3%
- viability, T/C (second compound 3.16 µM, first compound 1 µM): 54.1%
- viability, T/C (second compound 3.16 µM, first compound 3.16 µM): 43.2%
- viability, T/C (second compound 3.16 µM, first compound 10 µM): 15.4%
- viability, T/C [27]: 44%
- viability, T/C [28]: 44.8%
- viability, T/C (second compound 10 µM, first compound 0.316 µM): 43.3%
- viability, T/C (second compound 10 µM, first compound 1 µM): 53.2%
- viability, T/C (second compound 10 µM, first compound 3.16 µM): 31.9%
- viability, T/C (second compound 10 µM, first compound 10 µM): 11.5%
